Assay results from patent US20170224662A1 (priority 2016, published 2017).
Values after ≈ are worked out from the molar mass of the structure shown. Read-outs that look alike come from different tables or passages of the source.

Tests used:
Format in all cases: physicochemical
physchem [1] = details: aqueous buffer, thermodynamic from solid, read-out: Actual [CPMM] Concentration (maximum solubility)
Method: CPMM was evaluated for maximum solubility in aqueous pH 1-9 buffer solutions. CPMM was weighted into 1.0 mL of each solution, vortex mixed to solubilize, and placed on a shaker table until saturated. Additional CPMM was added and replaced on the shaker table until a saturated solution was obtained. The one exception was the pH 1 sample solution, which never reached saturation level due to the CPMM's high solubility at that pH range. Saturated solutions were centrifuged and the supernatants were analyzed by HPLC.

physchem [2] = details: imidazole nitrogen in position 3; solubility analysis (log solubility curve) and titration
From the text: The solubility of compounds as disclosed herein is pH-dependent. The imidazole nitrogen in position 3 of CPMM has a pKa of approximately 2.5, as determined by solubility analysis and titration. For example, CPMM is very water soluble at low pH, but solubility decreases with increasing pH, such that it is lower at pH 3-8.

[3] = 1- and 2-week accelerated stability of CPMM (~0.3 mg/mL) in aqueous pH buffer media, HPLC purity; details: for CPMM % Purity: t = 0
Method: The aqueous CPMM pH 1-9 samples described above were diluted as necessary to approximately 0.3 mg/mL and placed on accelerated stability at 25° C./60% relative humidity and 40° C./75% relative humidity conditions for two weeks. Samples were pulled at t=0, 1, and 2 weeks from set-up, and analyzed by HPLC. Samples were diluted to approximately 0.3 mg/mL, which well below the HPLC method nominal concentration, due to concerns of precipitation during the two week stability study. The injection volume was increased to compensate for the lower drug concentration in solution. The change in CPMM purity over the study duration is listed in Table 3 and plotted in FIGS. 3-5.
The pH 1 sample was placed on stability at a non-diluted concentration due to an error. This sample was re-diluted at the one-week time point to match the concentration in the pH 2-9 samples and re-placed on stability. The pH 9 sample results were not included in FIGS. 3-5 due to excessive degradation and for easier visual assessment over the more relevant pH 2-8 range.

SMILES: COC(=O)C1(OC(=O)c2cncn2[C@H](C)c2ccccc2)CC1 [CPMM, 1-(methoxycarbonyl)cyclopropyl-1-[(1R)-1-phenylethyl]-1H-imidazole-5-carboxylate]
- solubility (physchem [1]; 50 mM buffer pH 1 (phosphoric acid), actual pH 0.63, never saturated, not a true maximum solubility): 404000 µg/mL (≈ 1280 mM)
- solubility (physchem [1]; 50 mM buffer pH 2 (phosphoric acid), actual pH 1.43): 49400 µg/mL (≈ 157 mM)
- solubility (physchem [1]; 50 mM buffer pH 3 (phosphoric acid), actual pH 2.62): 3150 µg/mL (≈ 10 mM)
- solubility (physchem [1]; 50 mM buffer pH 4 (citric acid), actual pH 3.5): 677 µg/mL (≈ 2.15 mM)
- solubility (physchem [1]; 50 mM buffer pH 5 (citric acid), actual pH 4.57): 325 µg/mL (≈ 1.03 mM)
- solubility (physchem [1]; 50 mM buffer pH 6 (citric acid), actual pH 5.55): 284 µg/mL (≈ 0.903 mM)
- solubility (physchem [1]; 50 mM buffer pH 7 (phosphoric acid), actual pH 6.68): 268 µg/mL (≈ 0.853 mM)
- solubility (physchem [1]; 50 mM buffer pH 8 (phosphoric acid), actual pH 7.48): 260 µg/mL (≈ 0.827 mM)
- solubility (physchem [1]; 50 mM buffer pH 9 (phosphoric acid), actual pH 8.81): 279 µg/mL (≈ 0.888 mM)
- pKa (physchem [2]): ~2.5
- CPMM % Purity ([3]; 50 mM buffer pH 2 (Phosphoric Acid)): 99.39%
- CPMM % Purity ([3]; 50 mM buffer pH 3 (Phosphoric Acid)): 99.33%
- CPMM % Purity ([3]; 50 mM buffer pH 4 (Citric Acid)): 98.59%
- CPMM % Purity ([3]; 50 mM buffer pH 5 (Citric Acid)): 97.77%
- CPMM % Purity ([3]; 50 mM buffer pH 6 (Citric Acid)): 97.55%
- CPMM % Purity ([3]; 50 mM buffer pH 7 (Phosphoric Acid)): 98.16%
- CPMM % Purity ([3]; 50 mM buffer pH 8 (Phosphoric Acid)): 98.32%
- CPMM % Purity ([3]; 50 mM buffer pH 9 (Boric Acid)): 94.98%
- Change in CPMM % Purity ([3]; pH 5 (Citric Acid), 25° C./60% RH, t = 1 week): −0.62%
- Change in CPMM % Purity ([3]; pH 5 (Citric Acid), 25° C./60% RH, t = 2 week): −1.06%
- Change in CPMM % Purity ([3]; pH 5 (Citric Acid), 40° C./75% RH, t = 1 week): −2.16%
- Change in CPMM % Purity ([3]; pH 5 (Citric Acid), 40° C./75% RH, t = 2 week): −3.48%
- Change in CPMM % Purity ([3]; pH 6 (Citric Acid), 25° C./60% RH, t = 1 week): −0.33%
- Change in CPMM % Purity ([3]; pH 6 (Citric Acid), 25° C./60% RH, t = 2 week): −0.55%
- Change in CPMM % Purity ([3]; pH 6 (Citric Acid), 40° C./75% RH, t = 1 week): −2.72%
- Change in CPMM % Purity ([3]; pH 6 (Citric Acid), 40° C./75% RH, t = 2 week): −3.49%
- Change in CPMM % Purity ([3]; pH 7 (Phosphoric Acid), 25° C./60% RH, t = 1 week): −0.39%
- Change in CPMM % Purity ([3]; pH 7 (Phosphoric Acid), 25° C./60% RH, t = 2 week): −0.96%
